From publication PMC3552057 (Biochemistry, 2013) come the findings set out here.

The experiment addresses T1, HpxO (Klebsiella pneumoniae, UniProt A6T923).
T1 sequence (A6T923 1-384): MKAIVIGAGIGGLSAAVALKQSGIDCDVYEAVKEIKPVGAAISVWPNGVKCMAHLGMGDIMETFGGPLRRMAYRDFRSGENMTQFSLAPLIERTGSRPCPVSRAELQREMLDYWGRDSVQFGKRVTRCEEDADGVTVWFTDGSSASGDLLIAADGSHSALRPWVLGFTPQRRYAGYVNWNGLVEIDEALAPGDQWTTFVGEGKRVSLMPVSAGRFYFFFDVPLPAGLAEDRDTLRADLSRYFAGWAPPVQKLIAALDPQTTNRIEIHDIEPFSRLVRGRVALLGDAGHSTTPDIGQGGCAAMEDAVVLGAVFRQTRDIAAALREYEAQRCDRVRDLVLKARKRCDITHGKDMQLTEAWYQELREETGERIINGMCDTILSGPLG
The experiment can be described thus: X-ray crystal structure, […] Å. Format: binding. To be noted: SeMet HpxO without uric acid; FAD in the in conformation.

Consider `Cc1cc2nc3c(=O)[nH]c(=O)nc-3n(C[C@H](O)[C@H](O)[C@H](O)COP(=O)(O)OP(=O)(O)OC[C@H]3O[C@@H](n4cnc5c(N)ncnc54)[C@H](O)[C@@H]3O)c2cc1C` [FAD], for which the “X-ray crystal structure, 2.2 Å” value was “One FAD molecule binds to the HpxO monomer in an extended conformation”.
